According to patent publication US5441887A, “Rapid degradation of halogenated hydrocarbons by soluble methane monooxygenase” (Regents of the University of Minnesota, priority 1994, dated 1995):

Experiments:
[1] = system: methane-utilizing mixed culture; settings: Fogel et al.; cited from earlier work
methanotrophic bacteria = settings: optimal conditions, prior reports; cited from earlier work
Mt OB3b = assay: TCE oxidation by Mt OB3b grown by conventional methods (shake flask); type: cell-based, Methylosinus trichosporium OB3b; settings: initial TCE concentrations of one ppm or higher
[2] = system: Methylosinus trichosporium OB3b; assay: No-headspace (single phase) assay of TCE degradation by continuously cultured Mt OB3b; type: cell-based; settings: for Rates: 0% methane, 10 min-15 min; for micromoles TCE removed · hr^-1 · g dry cells^-1: cells cultured with methane 45 ml/min, air 135 ml/min; for Micromoles TCE removed: culture 0.64 g cells/l
Protocol: Each culture of Mt OB3b was added to 1.8 ml serum bottle prewarmed to 30° C. and sealed with an 11 mm teflon-lined rubber septa. For comparisons requiring similar initial dissolved oxygen levels, anaerobic make-up media (usually 0.6 ml) was added to the bottles first and then the bottles were sealed. Air-saturated 30° C. Higgins media prepared as in Example I was added via gas-tight syringe (1.0 ml), while 1 atm pressure was maintained by allowing air to bleed through a 25 gauge needle. Finally, culture was added (concentrated to give desired density) while remaining headspace-was bled out through the 25 gauge needle. TCE was added with a syringe at the bottom of the sealed bottle, with a syringe at top of the bottle removing equivalent volume of culture. The assay time course was started with TCE (substrate) addition. Incubation was performed at 30° C. with agitation at 200 rpm on a platform shaker.
Assays were terminated by extraction at desired time points. The liquid-liquid extraction technique used 0.6 ml of pentane containing 1,2-dibromoethane as an internal standard added via gas-tight syringe to inverted assay bottle, while a second syringe with a needle below first needle level collected displaced solution. Partitioning was brought to equilibrium by centrifugation of bottles at 5000 rpm for 10 min. The organic layer was removed by gas-tight syringe and placed in a 1 ml serum bottle for chromatographic analysis. In some cases, dilution of sample or split injection was necessary. Electron-capture detection was preferred. The following gas chromatography operating parameters were used:
The following Tests 1, 2 and 3 were conducted according to the no-headspaceassay procedure described generally above. […]
In prewarmed (30° C.) 120 ml serum bottles, 1 ml of Mt OB3b cell suspension grown in a chemostat (A600 =1.460) were mixed with 9 mls of 30° C. Higgins media prepared as in Example I. One bottle was prepared by adding "spent" media from the chemostat (decant media after pelleting cells with centrifugation--10,000 rpm for 10 minutes) rather than fresh Higgins media. The bottles were sealed with 20 mm teflon-lined rubber septa, evacuated and refilled with air (0% methane). One bottle was heat-killed and used as a control.
1.76 ml of Mt OB3b cell suspension was added to sealed 1.8 ml serum bottles (25 gauge needle used to equilibrate pressure). 45 μl of 4 mM TCE stock were added to start the assay. Bottles were incubated at 30° C. with agitation on a shaker bath. Bottles were sacrificed at 2.5, 5.0, 10.0, 15.0 and 20.0 mins by displacing 0.6 ml aqueous solution with pentane containing 1 ppm 1,2-dibromoethane as an internal standard. Analysis was performed on a HP 5790A GC using ECD.

[3] = target: T1, soluble methane monooxygenase (reductase, component B, hydroxylase) (Methylosinus trichosporium, UniProt P27353); assay: Degradation of 14C-TCE by purified methane monooxygenase components with NADH, HPLC analysis; type: biochemical, Methylosinus trichosporium OB3b
T1 construct: The cells were disintegrated by sonication; made in house; host or cells: native protein purified from cell paste of the methane-oxidizing bacterium (no recombinant host given)
T1 sequence (P27353 1-526): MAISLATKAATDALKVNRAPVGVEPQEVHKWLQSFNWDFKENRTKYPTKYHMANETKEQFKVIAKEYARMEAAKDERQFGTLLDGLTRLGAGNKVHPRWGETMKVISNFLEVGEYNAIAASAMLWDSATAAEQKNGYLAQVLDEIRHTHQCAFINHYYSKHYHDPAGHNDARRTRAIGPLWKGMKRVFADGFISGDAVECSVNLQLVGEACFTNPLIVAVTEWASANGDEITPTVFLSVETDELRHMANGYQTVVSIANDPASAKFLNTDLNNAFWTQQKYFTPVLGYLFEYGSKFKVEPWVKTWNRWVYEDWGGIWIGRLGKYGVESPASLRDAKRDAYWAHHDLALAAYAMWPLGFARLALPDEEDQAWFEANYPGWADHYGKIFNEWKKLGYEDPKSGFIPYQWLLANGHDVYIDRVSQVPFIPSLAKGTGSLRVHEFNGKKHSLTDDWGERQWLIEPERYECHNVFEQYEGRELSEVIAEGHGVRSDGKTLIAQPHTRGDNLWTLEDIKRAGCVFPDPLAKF
T1 sequence (P27354 1-394 partner): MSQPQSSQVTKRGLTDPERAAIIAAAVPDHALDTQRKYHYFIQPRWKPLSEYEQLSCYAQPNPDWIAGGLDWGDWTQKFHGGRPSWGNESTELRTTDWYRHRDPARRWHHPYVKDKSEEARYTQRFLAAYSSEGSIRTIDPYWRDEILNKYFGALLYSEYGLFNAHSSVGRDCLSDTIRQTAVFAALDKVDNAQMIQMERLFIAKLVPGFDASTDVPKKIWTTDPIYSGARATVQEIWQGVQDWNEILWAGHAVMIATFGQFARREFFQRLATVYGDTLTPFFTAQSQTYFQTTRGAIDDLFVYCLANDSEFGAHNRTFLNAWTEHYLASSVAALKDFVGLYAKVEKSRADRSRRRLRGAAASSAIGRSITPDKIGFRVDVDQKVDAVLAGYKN
T1 sequence (P27355 1-169 partner): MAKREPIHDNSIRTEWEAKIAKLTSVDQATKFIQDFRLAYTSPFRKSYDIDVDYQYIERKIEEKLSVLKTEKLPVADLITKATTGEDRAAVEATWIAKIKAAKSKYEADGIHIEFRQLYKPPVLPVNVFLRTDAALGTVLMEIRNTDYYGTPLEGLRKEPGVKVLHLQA
Protocol: The three components of methane monooxygenase, reductase, component B, and hydroxylase, were purified by the method of Fox and Lipscomb, supra, the disclosure of which is hereby incorporated by reference. All purification procedures were performed at 4° C. The cell paste (100 g) was suspended in 200 ml of 25 mM MOPS, pH 7.0, containing 200 μ M Fe(NH4 )2 (SO4)2.6H2 O and 2 mM cysteine (Buffer A). The cells were disintegrated by sonication. The sonicated suspension was centrifuged at 48000×g for 60 min. The supernatant was decanted, diluted with an additional 100 ml of buffer A, and adjusted to pH 7.0. The cell free extract was immediately loaded onto a fast flow DEAE Sepharose CL-6B column (40 mm×250 mm) equilibrated with buffer A. The column was then washed with 600 ml of buffer A. All MMO components were completely adsorbed. The MMO components were eluted with a 2000 ml gradient of 0.0 to 0.40M NaCl in buffer A. The hydroxylase eluted at 0.075M NaCl. The two additional fractions required for reconstituted hydroxylase activity, component B and the reductase, eluted at 0.18M NaCl and 0.27M NaCl, respectively.
105 nmol of uniformly labelled ^14 C-TCE was added to each vial by injection through the rubber septum above the reaction mixture until a final TCE concentration of 70 μM was reached. The reaction was allowed to proceed for 2 min at 25° C. and then quenched by the addition of sulfuric acid (Sigma Chemical Company, St. Louis, Miss.) at pH 2.0.
Following centrifugation to remove precipitated protein, the reaction mixtures were analyzed by high pressure liquid chromatography (HPLC).

[4] = system: methane-oxidizing bacteria; settings: soil exposed to 0.6% natural gas in air for 3 weeks, TCE average 150 μg/l in influent; cited from earlier work
[5] = system: Methylosinus trichosporium OB3b; assay: Two-phase headspace assay of TCE degradation by continuously cultured Mt OB3b; type: cell-based
Protocol: Each culture of Mt OB3b was added in 2 ml quantities to 10 ml serum bottles. Bottles were sealed with 20 mm teflon-lined rubber septa. TCE was added to start the assay. Headspace accounted for 80% of total volume within bottles, but TCE concentration was added based on 2 ml aqueous phase. TCE resided principally in the headspace. All bottles were inverted in order to prevent possible TCE loss by trapping the compound in the headspace between the liquid phase and glass. Samples were incubated inverted at 30° C. with agitation (200 rpm on a platform shaker).
Headspace incubations were analyzed by direct injection of headspace into a gas chromatograph. This method may be performed without sacrificing a sample. It is important to prepare sound calibration curves for quantitation. The best method for external standardization is to prepare samples as if running an assay and heat-killing at 80° C. for 10 mins prior to TCE addition. Samples were incubated for 30 mins under test conditions to allow adequate time for TCE to partition among the numerous phases (air, water, cell material, and the like). Headspace samples were injected into a gas chromatograph using either FID or ECD. Numerous TCE concentrations were used to obtain a sound standardization curve.
Headspace assays of TCE degradation were conducted by adding bacterial cells from the continuous culture described in Example II or cells diluted with spent Higgins medium (2 mls) into assay vials (10 ml vials).
Rates were calculated from peak heights of recorder tracings from a gas chromatograph equipped with an electron capture detector.

[6] = system: Methylococcus capsulatus Bath; settings: aerobe Methylococcus capsulatus Bath; cited from earlier work

ClC=C(Cl)Cl [TCE, 1,1,2-trichloroethene]
Rate of TCE degradation [1]: approximately 2.5 μmoles per hour per gram of cells
Rates of TCE degradation reported (methanotrophic bacteria): exceed 100 μmoles per hour per gram of cells
Removal at which oxidation of TCE ceased (Mt OB3b): about 50%
Rate of TCE-utilization (no headspace assay) ([2]; Test 1, culture turbidity A600 1.310): 336 μmoles·hr^-1·g cells^-1
Rate of TCE-utilization (no headspace assay) ([2]; Test 2, culture turbidity A600 1.410): 1070 μmoles·hr^-1·g cells^-1
Rate of TCE-utilization (no headspace assay) ([2]; Test 3, culture turbidity A600 1.460): 2400 μmoles·hr^-1·g cells^-1
Rate when most rapid oxidation of TCE occurred ([2]; Test 3, times of most rapid oxidation): approximately 3500 μmoles/h^-1.g cells^-1
Rates ([2]; Test 3 Run 2, 1/10 dilution in Higgins media): 3200 μmoles·h^-1·g cells^-1
Rates ([2]; Test 3 Run 3, 1/10 dilution in spent Higgins media from chemostat): 3960 μmoles·h^-1·g cells^-1
micromoles TCE removed · hr^-1 · g dry cells^-1 ([2]; concentration of TCE 10 μM): 829 micromoles TCE removed·hr^-1·g
micromoles TCE removed · hr^-1 · g dry cells^-1 ([2]; concentration of TCE 25 μM): 1104 micromoles TCE removed·hr^-1·g
micromoles TCE removed · hr^-1 · g dry cells^-1 ([2]; concentration of TCE 50 μM): 1194 micromoles TCE removed·hr^-1·g
Micromoles TCE removed ([2]; concentration of TCE 40 μm, 5-10 min.): 2.96 µmol/min
Micromoles TCE removed ([2]; concentration of TCE 80 μm, 5-10 min.): 5.69 µmol/min
Micromoles TCE removed ([2]; concentration of TCE 80 μm, 10-15 min.): 3.03 µmol/min
Micromoles TCE removed ([2]; concentration of TCE 320 μm, 5-10 min.): 15.54 µmol/min
Micromoles TCE removed ([2]; concentration of TCE 320 μm, 10-15 min.): 10.2 µmol/min
Micromoles TCE removed ([2]; concentration of TCE 640 μm, 10-25 min.): 10.48 µmol/min
Km ([2]; concluded from Table VIII and other experiments, read-out: Ks for TCE oxidation): ~5 µM
Rate of TCE oxidation ([2]; methane added 5% saturation, cell density approx. 0.16 g/l, nominal initial TCE 80 μM): 3350 μmoles·hr^-1·g cells^-1
Rate of TCE oxidation ([2]; methane added 10% saturation, cell density approx. 0.16 g/l, nominal initial TCE 80 μM): 3000 μmoles·hr^-1·g cells^-1
Rate of TCE oxidation ([2]; methane added 20% saturation, cell density approx. 0.16 g/l, nominal initial TCE 80 μM): 875 μmoles·hr^-1·g cells^-1
Rate of TCE oxidation ([2]; methane added 50% saturation, cell density approx. 0.16 g/l, nominal initial TCE 80 μM): 110 μmoles·hr^-1·g cells^-1
Rate of TCE oxidation ([2]; methane added: none, cell density approx. 0.16 g/l, nominal initial TCE 80 μM): 660 μmoles·hr^-1·g cells^-1
Rate of TCE oxidation ([2]; some cell batches, without any methane present): approximately 4000 micro-moles.hr^-1.g cells^-1
Rate at which cells are believed able to oxidize TCE ([2]; under optimal conditions, belief, extrapolated): 10,000 μmoles.h^-1.g cells^-1
Products of TCE oxidation ([3]; 70 μM 14C-TCE, 2 min at 25° C., HPLC): formic acid, glyoxylic acid, dichloroacetic acid, and chloral
TCE converted to HPLC-detectable products ([3]; 70 μM 14C-TCE, 2 min at 25° C., reductase 110 μg, component B 13 μg, hydroxylase 250 μg, NADH 0.1 mM): 53%
Products of TCE oxidation in control incubations ([3]; each one of the methane monooxygenase components or NADH omitted): no products of TCE oxidation were detectable
Applied TCE passing through the soil [4]: less than 5%
Rate, micromoles TCE oxidized · g cells^-1 · hr^-1 ([5]; cell density .070 g·l^-1, initial TCE 22 micromolar): 808 micromoles TCE oxidized·g cell
Rate, micromoles TCE oxidized · g cells^-1 · hr^-1 ([5]; cell density .173 g·l^-1, initial TCE 23 micromolar): 461 micromoles TCE oxidized·g cell
Rate, micromoles TCE oxidized · g cells^-1 · hr^-1 ([5]; cell density .347 g·l^-1, initial TCE 22 micromolar): 465 micromoles TCE oxidized·g cell
Rate, micromoles TCE oxidized · g cells^-1 · hr^-1 ([5]; cell density .521 g·l^-1, initial TCE 22 micromolar): 308 micromoles TCE oxidized·g cell
Rate, micromoles TCE oxidized · g cells^-1 · hr^-1 ([5]; cell density .695 g·l^-1, initial TCE 22 micromolar): 281 micromoles TCE oxidized·g cell
Rate of TCE degradation ([5]; low cell densities, initial TCE 80 μM, culture cell mass 0.825 g/l (FIG. 1)): 1200 micromoles TCE removed.hr^-1.g cells^-1

ClC(Cl)Cl [chloroform]
Oxidation rate [6]: 35 nano-moles per gram of cells per minute
